In US20220401383A1 (SHINKEI THERAPEUTICS, INC., priority 2019, published 2022):
Like-named read-outs stand apart in the source and are kept apart here.

What was measured:
[1] = tested on: CBD metabolism in human liver microsomes; assay: Example 1: inhibition of CBD metabolism in pooled human liver microsomes; conditions: for Inhibition of CBD metabolism (in words): human liver microsomes; for IC50: read-out: HLM CYP inhibition IC50, substrate CBD, pooled HLM 0.1 mg/mL, CBD 1.64 μM, 15 minutes, n = 1
[2] = tested on: Maximum Electroconvulsive Shock (MES) model; conditions: MES model in mouse; cited from earlier work
[3] = cited from earlier work
[4] = tested on: CBD metabolism in human liver microsomes (CYP3A4 and CYP2C19); assay: in vitro
[5] = Clinical pharmacokinetics (literature data); conditions: human, in vivo, oral
[6] = cited from earlier work; remark: listed apart in the source
CYP2C19 [7] = biological target: T1, CYP2C19 (Homo sapiens, UniProt P33261); conditions: cited from earlier work
CYP1A2 = biological target: T2, CYP1A2 (Homo sapiens, UniProt P05177); conditions: cited from earlier work
T2 sequence (P05177 1-516): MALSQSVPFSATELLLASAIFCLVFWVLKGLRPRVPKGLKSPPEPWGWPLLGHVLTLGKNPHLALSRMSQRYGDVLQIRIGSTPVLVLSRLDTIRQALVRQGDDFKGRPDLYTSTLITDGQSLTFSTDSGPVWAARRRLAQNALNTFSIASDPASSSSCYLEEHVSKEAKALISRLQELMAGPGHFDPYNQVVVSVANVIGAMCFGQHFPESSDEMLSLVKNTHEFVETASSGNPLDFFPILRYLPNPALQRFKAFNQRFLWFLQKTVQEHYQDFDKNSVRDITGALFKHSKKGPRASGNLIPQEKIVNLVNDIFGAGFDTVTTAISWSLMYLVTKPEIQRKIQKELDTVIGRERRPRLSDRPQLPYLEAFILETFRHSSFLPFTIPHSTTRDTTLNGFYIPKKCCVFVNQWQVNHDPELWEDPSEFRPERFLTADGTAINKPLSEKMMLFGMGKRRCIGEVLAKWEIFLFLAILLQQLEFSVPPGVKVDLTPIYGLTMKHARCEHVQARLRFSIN

CYP2D6 = CYP2D6 (Homo sapiens, UniProt P10635); assay: biochemical
Method: Incubation mixtures were prepared with the following:
(a) potassium phosphate buffer;
(b) 0.1 mg/mL microsomal protein;
(c) isoform-specific probe substrates;
(d) specific concentrations of the test compounds, blank solvent, or positive controls (isoform-specific inhibitors); and
(e) an NADPH-regenerating cofactor solution.
Upon completion of the incubation, the reactions were quenched with an acetonitrile solution containing an internal standard. The samples were processed and analyzed by LC-MS/MS to monitor for substrate metabolite formation. The enzyme activity in the presence of the compounds were normalized with the enzyme activity in the absence of the compounds and expressed as a percentage of activity. The inhibitory potential (IC50) of the compounds were determined using nonlinear regression of percentage of activity versus compound concentration.

CYP2C8 = biological target: T3, CYP2C8 (Homo sapiens, UniProt P10632); conditions: cited from earlier work
T3 sequence (P10632 1-490): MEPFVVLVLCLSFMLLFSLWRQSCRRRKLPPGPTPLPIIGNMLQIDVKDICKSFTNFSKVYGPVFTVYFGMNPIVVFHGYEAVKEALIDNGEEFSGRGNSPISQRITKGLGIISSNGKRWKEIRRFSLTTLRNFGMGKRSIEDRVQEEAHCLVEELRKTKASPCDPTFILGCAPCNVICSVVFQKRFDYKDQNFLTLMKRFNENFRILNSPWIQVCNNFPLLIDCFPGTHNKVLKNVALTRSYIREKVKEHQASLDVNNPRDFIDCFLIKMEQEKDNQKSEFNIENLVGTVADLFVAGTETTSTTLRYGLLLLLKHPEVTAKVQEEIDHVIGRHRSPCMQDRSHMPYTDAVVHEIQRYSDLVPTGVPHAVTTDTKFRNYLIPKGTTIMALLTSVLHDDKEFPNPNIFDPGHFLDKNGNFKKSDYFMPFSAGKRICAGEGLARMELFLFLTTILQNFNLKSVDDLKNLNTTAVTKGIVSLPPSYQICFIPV

CYP2C19 [8] = biological target: T1, CYP2C19

T1 sequence (P33261 whole entry): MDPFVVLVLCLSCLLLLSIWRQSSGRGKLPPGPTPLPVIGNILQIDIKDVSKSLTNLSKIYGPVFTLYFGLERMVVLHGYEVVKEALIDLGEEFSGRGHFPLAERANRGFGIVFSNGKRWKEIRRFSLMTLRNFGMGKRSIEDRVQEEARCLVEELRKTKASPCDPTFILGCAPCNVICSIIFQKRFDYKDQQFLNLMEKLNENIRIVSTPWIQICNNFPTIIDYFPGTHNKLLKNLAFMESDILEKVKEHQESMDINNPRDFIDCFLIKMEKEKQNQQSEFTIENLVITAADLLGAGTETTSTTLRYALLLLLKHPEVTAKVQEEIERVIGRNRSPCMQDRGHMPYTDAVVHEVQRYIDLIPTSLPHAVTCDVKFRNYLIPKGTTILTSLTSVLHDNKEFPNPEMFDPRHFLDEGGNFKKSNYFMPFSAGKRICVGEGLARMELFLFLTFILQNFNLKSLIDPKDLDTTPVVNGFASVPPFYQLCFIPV
Chain of CYP2D6 (P10635 whole entry): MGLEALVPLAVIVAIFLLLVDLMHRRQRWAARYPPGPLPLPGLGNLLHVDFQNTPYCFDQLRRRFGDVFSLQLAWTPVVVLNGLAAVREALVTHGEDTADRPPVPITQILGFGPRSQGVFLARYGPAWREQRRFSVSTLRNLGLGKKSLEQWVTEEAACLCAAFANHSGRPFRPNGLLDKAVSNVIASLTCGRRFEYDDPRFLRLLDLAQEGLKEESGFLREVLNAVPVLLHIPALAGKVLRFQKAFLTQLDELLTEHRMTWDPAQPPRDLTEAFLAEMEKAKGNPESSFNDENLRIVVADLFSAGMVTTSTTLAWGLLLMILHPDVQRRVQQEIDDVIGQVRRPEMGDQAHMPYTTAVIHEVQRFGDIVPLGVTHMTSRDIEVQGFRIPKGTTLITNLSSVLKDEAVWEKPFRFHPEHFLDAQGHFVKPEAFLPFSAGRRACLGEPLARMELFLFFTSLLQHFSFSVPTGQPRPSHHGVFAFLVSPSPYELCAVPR

For `C/C(=C\COc1c2ccoc2cc2oc(=O)ccc12)CCC(O)C(C)(C)O` (stereo not drawn) [6,7-dihydroxybergamottin], the “Inhibition of CBD metabolism (in words)” value [1] was “effective inhibitors of CBD metabolism” and the IC50 [1] was 23.3 µM.

For `C=C(C)[C@@H]1CCC(C(=O)O)=C[C@H]1c1c(O)cc(CCCCC)cc1O` [7-COOH-CBD], the Anticonvulsant effect [2] is listed as “inactive”, the “Concentration of metabolite relative to CBD” value ([3]; after 1500 mg CBD dose) is listed as 47 fold and the “Share of the total drug material measured in systemic circulation” value ([3]; after 1500 mg CBD dose) is listed as 97%.

For `C=C(C)[C@@H]1CCC(CO)=C[C@H]1c1c(O)cc(CCCCC)cc1O` [7-OH-CBD], the Anticonvulsant effect [2] is listed as “anticonvulsant effect similar to CBD”.

`CC(C)=CCC/C(C)=C/COc1c2ccoc2cc2oc(=O)ccc12` [Bergamottin] gave an IC50 at 15 min [4] of over 33 µM.

With `C=C(C)[C@@H]1CCC(C)=C[C@H]1c1c(O)cc(CCCCC)cc1O` [CBD, cannabidiol] the bioavailability ([5]; 200 mg) was 100%, the bioavailability ([5]; 750 mg) was 57% and the bioavailability ([5]; 1500 mg) was 39%. For the same compound, the bioavailability ([5]; 3000 mg) was 36%, the bioavailability ([5]; 4500 mg) was 29% and the bioavailability ([5]; 6000 mg) was 25%. For the same compound, the “Share of the total drug material measured in systemic circulation” value ([3]; after 1500 mg CBD dose) was 2%, the “CBD AUC” value ([3]; single dose 200 mg) was 499 ng·h/mL and the “CBD AUC” value ([3]; single dose 750 mg) was 1070 ng·h/mL. For the same compound, the “CBD AUC” value ([3]; single dose 1500 mg) was 1444 ng·h/mL, the “CBD AUC” value ([3]; single dose 3000 mg) was 2669 ng·h/mL and the “CBD AUC” value ([3]; single dose 4500 mg) was 3215 ng·h/mL. For the same compound, the “CBD AUC” value ([3]; single dose 6000 mg) was 3696 ng·h/mL and the “Log P (partition coefficient)” value [6] was 6.1.

In the case of `CC(C)c1nc(CN(C)C(=O)N[C@@H](CCN2CCOCC2)C(=O)N[C@H](CC[C@H](Cc2ccccc2)NC(=O)OCc2cncs2)Cc2ccccc2)cs1` [Cobicistat], the “Inhibition of CBD metabolism (in words)” value [1] is listed as “strong inhibitor of CBD metabolism”, the IC50 (CYP2C19 [7]) is listed as over 25 µM and the IC50 (CYP1A2) is listed as over 25 µM. For the same compound, the IC50 (CYP2D6) was 0.479 µM, the IC50 (CYP2C8) was over 25 µM and the IC50 (CYP2C19 [8]) was 0.331 µM.

In the case of `CNCCC(Oc1ccc(C(F)(F)F)cc1)c1ccccc1` (stereo not drawn) [Fluoxetine], the “Inhibition of CBD metabolism (in words)” value [1] is reported as “unable to inhibit metabolism of CBD” and the IC50 at 15 min [4] is reported as over 33 µM.

With `Cc1c(OCC(F)(F)F)ccnc1C[S+]([O-])c1nc2ccccc2[nH]1` (stereo not drawn) [Lansoprazole] the “Inhibition of CBD metabolism (in words)” value [1] was “effective inhibitors of CBD metabolism” and the IC50 at 15 min [4] was 20 µM.

`COc1ccc2[nH]c(S(=O)(=O)Cc3ncc(C)c(OC)c3C)nc2c1` [Omeprazole Sulphone] showed an IC50 [1] of over 33 µM.

Compound `COc1ccc2[nH]c([S+]([O-])Cc3ncc(C)c(OC)c3C)nc2c1` (stereo not drawn) [Omeprazole] has an IC50 at 15 min [4] of over 33 µM.
